Numbers after ± are expanded uncertainties.

For the data set the following is noted: Liquid.

By vapor or sublimation pressure is commonly meant the pressure of vapour in equilibrium with the condensed phase. As for `FCC(F)(F)F` [1,1,1,2-tetrafluoroethane], the “vapor or sublimation pressure” value was determined as 163.9 ± 5.9 kPa (258.15 K); 200.6 ± 6.8 kPa (263.15 K); 243.3 ± 7.9 kPa (268.15 K); 314.6 ± 10 kPa (275.15 K); 414.6 ± 13 kPa (283.15 K); 571.7 ± 18 kPa (293.15 K). The “vapor or sublimation pressure” value reads like this: (303.15 K) 770.2 ± 24 kPa; (313.15 K) 1017 ± 32 kPa; (323.15 K) 1318 ± 41 kPa; (333.15 K) 1682 ± 52 kPa; (343.15 K) 2117 ± 66 kPa.
Regarding `FCF` [difluoromethane], the “vapor or sublimation pressure” value by setting is: (258.15 K) 488.1 ± 15 kPa; (268.15 K) 690.6 ± 22 kPa; (275.15 K) 866.5 ± 27 kPa; (283.15 K) 1107 ± 35 kPa; (293.15 K) 1475 ± 46 kPa; (303.15 K) 1928 ± 60 kPa. In addition, the “vapor or sublimation pressure” value turned out to be 2478 ± 77 kPa (313.15 K), 3141 ± 98 kPa (323.15 K), 3933 ± 120 kPa (333.15 K) and 4877 ± 150 kPa (343.15 K).

The record behind these values is the NIST ThermoML archive (doi:10.1016/j.fluid.2006.09.017).
